# Reference: patent publication US20230140972A1, “GLYCEROL GLUCOSIDE-BASED COMPOUND AND COMPOSITION COMPRISING SAME FOR ULTRAVIOLET LIGHT SHIELD OR ANTI-INFLAMMATION” (ATHENA CO., LTD., priority 2020, published 2023)
# “And” between values parts separate entries of the source, which are not always exact repeats. Identical values can stand only once.
# Columns and labels:
# [1] = test system: TNF-α production in RAW264.7 cells; experiment: TNF-α production inhibition using ELISA assay; assay type: cell-based; conditions: Mus musculus, LPS 10 ng/mL, read-out: TNF-α production inhibition ability
# Experimental: A TNF-α production inhibition ability of the sample in RAW264.7 cells was evaluated using a TNF-α ELISA assay.
# Specifically, subcultured RAW264.7 cells were aliquoted into a 6-well dish at 1.5×10^6 cells/well, and cultured for 24 hours at 37° C. in an incubator containing 5% carbon dioxide, and then a culture media was replaced with a serum-free media. Then, each sample was diluted by concentration and treated onto the cells with LPS (final 10 ng/mL). After culturing for 24 hours, the cell culture medium was recovered and the TNF-α ELISA assay was performed.
# 50 μL of an assay diluent was put into each well, and 50 μL of each of a standard solution and a cell culture solution were added to each well and reacted at room temperature for 2 hours. Thereafter, the reaction solution was removed from each well, washed with a wash buffer, 100 μL of TNF-α conjugate was added, and after reacting at room temperature for 2 hours, the reaction solution was removed from each well and washing is performed with a wash buffer.
# Thereafter, 100 μL of a substrate solution was added and a reaction under light blocking was carried out at room temperature, and then 100 μL of a stop solution was added, and an absorbance was measured at 450 and 570 nm. Dexamethasone was used as a positive control group. After the test was conducted once, a TNF-α synthesis amount was calculated by substituting the absorbance value into a TNF-α standard solution calibration curve, and then the TNF-α production inhibition rate (%) was calculated using Equation 3 below, and expressed as the mean±standard deviation of the experiment.
# [2] = test system: IL-6 production in RAW264.7 cells; experiment: IL-6 production inhibition using ELISA assay; assay type: cell-based, mouse; conditions: Mus musculus, RAW264.7, LPS 10 ng/mL, read-out: IL-6 production inhibition ability
# Experimental: An IL-6 ELISA assay was used to evaluate an IL-6 production inhibition ability of the sample in RAW264.7 cells.
# Specifically, subcultured RAW264.7 cells were aliquoted into a 6-well dish at 1.5×10^6 cells/well and cultured for 24 hours at 37° C. in an incubator containing 5% carbon dioxide, and then a culture media was replaced with a serum-free media. Then, each sample was diluted by concentration and treated onto the cells with LPS (final 10 ng/mL). After culturing for 24 hours, the cell culture medium was recovered and an IL-6 ELISA assay was performed.
# 50 μL of an assay diluent was put into each well, and 50 μL of each of a standard solution and a cell culture solution were added to each well and reacted at room temperature for 2 hours. Thereafter, the reaction solution was removed from each well, washed with a wash buffer, 100 μL of IL-6 conjugate was added, and after reaction at room temperature for 2 hours, the reaction solution was removed from each well and washing is performed with a wash buffer.
# Next, 100 μL of a substrate solution was added and a reaction under light blocking was carried out at room temperature, and then 100 μL of a stop solution was added, and an absorbance was measured at 450 and 570 nm. Dexamethasone was used as a positive control group. After the test was conducted once, an IL-6 production amount was calculated by substituting the absorbance value into a IL-6 standard solution calibration curve, and then the IL-6 production inhibition rate (%) was calculated using Equation 4 below, and expressed as the mean±standard deviation of the experiment.
# [3] = test system: COX-2 mRNA in RAW264.7 cells; experiment: COX-2 mRNA expression analysis (RT-qPCR); assay type: cell-based, mouse; conditions: LPS 100 ng/mL
# Experimental: An RT-qPCR was performed to evaluate an mRNA expression inhibition ability of COX-2 and iNOS of the glycerol glucoside-based compound sample (EPS-S).
# Specifically, subcultured RAW264.7 cells were aliquoted into a 60 mm dish at 1.5×10^6 cells, and cultured at 37° C. in an incubator containing 5% carbon dioxide for 24 hours, and then a culture media was replaced with a serum-free media. Then, each sample was diluted by concentration and treated onto the cells with LPS (final 100 ng/mL). After culturing for 24 hours, cells were recovered, RNA was extracted, and cDNA was synthesized. For cDNA, qPCR was performed after mixing Real-time PCR Master Mix with TaqMan probes of each of COX-2 and iNOS. Dexamethasone was used as a positive control group. The test was conducted once, and the mRNA expression inhibition rate was obtained by analyzing the result by the ΔΔCt method, and then substituted into Equation 6 below to obtain the mRNA expression inhibition rate of COX-2 and iNOS of the treated sample group compared to the negative control group.
# [4] = test system: NO2 production in LPS-treated RAW264.7 cells; experiment: Nitric oxide (NO2) production amount and inhibition, non-enzymatic method; assay type: cell-based, mouse; conditions: LPS 1 μg/mL, 24 h
# Experimental: An NO assay was performed to evaluate an amount of nitric oxide (NO2) production and a production inhibition ability of the glycerol glucoside-based compound sample (EPS-S).
# Specifically, subcultured RAW264.7 cells were aliquoted into a 96-well plate at 1×10^5 cells/well, and cultured at 37° C. in an incubator containing 5% carbon dioxide for 24 hours, and then a culture media was replaced with a serum-free media. […] Dexamethasone was used as a positive control group.
# [5] = test system: total NO production in LPS-treated RAW264.7 cells; experiment: Nitric oxide (total NO) production and inhibition, enzymatic method; assay type: cell-based, mouse; conditions: LPS 1 μg/mL
# Experimental: An NO assay was performed to evaluate an amount of nitric oxide (total NO) production and a production inhibition rate of the glycerol glucoside-based compound sample (EPS-S).
# Specifically, subcultured RAW264.7 cells were aliquoted into a 96-well plate at 1×10^5 cells/well, and cultured at 37° C. in an incubator containing 5% carbon dioxide for 24 hours, and then a culture media was replaced with a serum-free media. Then, each sample is diluted by concentration and treated onto the cells with LPS (final 1 μg/mL). After culturing for 24 hours, a cell culture medium was treated with nitrate reductase, enzyme cofactor and enhancer to react. A Griess reagent was added and an absorbance was measured at 540 nm with a microplate reader. A total NO production was obtained by substituting the absorbance into a standard nitric oxide calibration curve, and a total NO production inhibition rate (%) was analyzed through Equation 2 and expressed as a mean±standard deviation. Dexamethasone was used as a positive control group.
smiles,measurement,setting,value
COCC(COC)OC1OC(CO)C(O)C(O)C1O (centres unmarked) [EPS-S],inhibition at 10 ppm,"[1]; 24 h, 10 ppm",29.7%
same,inhibition at 100 ppm,"[1]; 24 h, 100 ppm",34.9%
same,inhibition at 500 ppm,"[1]; 24 h, 500 ppm",49.7%
same,inhibition at 1000 ppm,"[1]; 24 h, 1,000 ppm",77.6%
same,inhibition at 10 ppm,"[2]; 24 h, 10 ppm",10.1%
same,inhibition at 100 ppm,"[2]; 24 h, 100 ppm",23.8%
same,inhibition at 500 ppm,"[2]; 24 h, 500 ppm",36.3%
same,inhibition at 1000 ppm,"[2]; 24 h, 1,000 ppm",92.4%
same,COX-2 mRNA expression inhibition rate,"[3]; 24 h, 10 ppm",−9.09% and −9.09 ± 3.16%
same,COX-2 mRNA expression inhibition rate,"[3]; 24 h, 100 ppm",74.44% and 74.44 ± 0.91%
same,COX-2 mRNA expression inhibition rate,"[3]; 24 h, 500 ppm",76.43% and 76.43 ± 1.11%
same,COX-2 mRNA expression inhibition rate,"[3]; 24 h, 1,000 ppm",83.19% and 83.19 ± 1.30%
same,NO2 production amount,[4]; 10 ppm,23.14 ± 0.25 µM
same,NO2 production amount,[4]; 100 ppm,23.14 µM and 22.57 ± 0.16 µM
same,NO2 production amount,[4]; 500 ppm (text b168),22.57 µM
same,NO2 production amount,[4]; 1000 ppm,20.90 µM and 20.90 ± 0.50 µM
same,inhibition at 100 ppm,"[4]; Mus musculus, RAW264.7, 100 ppm, read-out: NO2 production inhibition rate",9.47%
same,inhibition at 500 ppm,"[4]; Mus musculus, RAW264.7, 500 ppm, read-out: NO2 production inhibition rate",13.2%
same,inhibition at 1000 ppm,"[4]; Mus musculus, RAW264.7, 1000 ppm, read-out: NO2 production inhibition rate",24%
same,Total NO production,"[5]; 24 h, 100 ppm",62.07 µM and 62.07 ± 0.48 µM
same,Total NO production inhibition rate,"[5]; 24 h, 100 ppm",−3.85 ± 2.22%
same,Total NO production,"[5]; 24 h, 500 ppm",59.20 µM and 59.20 ± 0.86 µM
same,Total NO production,"[5]; 24 h, 1000 ppm",53.38 µM and 53.38 ± 0.18 µM
same,inhibition at 10 ppm,"[5]; Mus musculus, RAW264.7, 24 h, 10 ppm, read-out: Total NO production inhibition rate",-11.3 ± 1.24%
same,inhibition at 500 ppm,"[5]; Mus musculus, RAW264.7, 24 h, 500 ppm (text b176), read-out: Total NO production inhibition rate",-3.84%
same,inhibition at 1000 ppm,"[5]; Mus musculus, RAW264.7, 24 h, 1000 ppm, read-out: Total NO production inhibition rate",11.2%
